Assay results as given in patent US20240307350A1, “5-METHOXY-N,N-DIMETHYLTRYPTAMINE (5-MEO-DMT) FOR TREATING DEPRESSION” (GH RESEARCH IRELAND LIMITED, priority 2019, published 2024).

Columns and labels:
[1] = tested on: patients with treatment-resistant major depressive disorder; experiment: Clinical trial of inhaled 5-MeO-DMT in treatment-resistant major depressive disorder: safety and tolerability; format: in vivo, human; settings: for Reported adverse events: 12 mg inhaled
Description: (§1) A clinical trial was performed in which 5-MeO-DMT free base (purity not less than 99%) was administered to patients with treatment-resistant major depressive disorder (TRD). The objectives of the study were to assess the safety and tolerability, the dose-related psychedelic effects and the effects on various measures of depression of single-day dosing of 5-MeO-DMT. The trial was reviewed and approved by the relevant national competent authority and local medical ethics committee. Patients recruited into the trial had to meet the Diagnostic and Statistical Manual of Mental Disorders-Fifth Edition (DSM-5) diagnostic criteria for single-episode or recurrent major depressive disorder and had to be treatment-resistant, both aspects as evaluated by a psychiatrist or registered psychologist. Patients who were using any psychoactive medication or substance (such as anti-depressive medication) had to discontinue such medication or substance and had to observe a wash-out period before the 5-MeO-DMT administration. On the administration day, a single dose of 12 mg 5-MeO-DMT was administered to the patients via a single inhalation as described in Example 1A. Patients were closely monitored for 3.5 hours after administration, with additional follow-up visits 1 day and 7 days after dosing. Various safety related measures (e.g., adverse event reporting, safety laboratory analyses, vital signs, electrocardiogram (ECG), Clinician Administered Dissociative States Scale (CADSS), Psychomotor Vigilance Test (PVT), Digit Symbol Substitution Test (DSST)), measures of the intensity of the psychedelic effects (e.g., Peak Psychedelic Experience Questionnaire (PPEQ), Altered States of Consciousness (ASC) Questionnaire, Mystical Experience Questionnaire (MEQ30), subjective description of the psychedelic experience), measures of depression severity (Montgomery-Åsberg Depression Rating Scale (MADRS), Patient's Global Impression of Severity scale (PGI-S), Patient's Global Impression of Improvement scale (PGI-I)), and additional psychological measures (e.g., Columbia-Suicide Severity Rating Scale (C-SSRS), Brief Psychiatric Rating Scale (BPRS)) were recorded at different time points. Psychological support via a psychologist and/or psychiatrist was available to the patients throughout the study, but no specific psychotherapy was applied, and no additional psychoactive medication was provided.
(§2) Two patients with major depressive disorder diagnosed by a psychiatrist according to DSM-5 diagnostic criteria were recruited into the study (Example 2, Table 1). The patients were considered treatment-resistant because they had not shown adequate improvement to at least two adequate courses of pharmacological therapy in the current episode of depression.

[2] = tested on: patients with treatment-resistant major depressive disorder; experiment: Clinical trial in treatment-resistant major depressive disorder: symptom scales (MADRS, PGI-S, PGI-I, C-SSRS, BPRS); format: in vivo, human; settings: for PGI-I: 1, Very much improved, 2, Much improved, to 7, Very much worse; for MADRS suicidal thoughts item: ranges from 0 to 6; for BPRS Unusual thought content / BPRS Somatic concern / BPRS Tension / BPRS Guilt feelings / BPRS Depressive Mood / BPRS Anxiety: scale of 1-7; for PGI-S: 1, Normal, not at all ill to 7, Extremely ill; for MADRS: score 0 to 60; for BPRS (total): 18 symptoms each rated 1-7; for C-SSRS Suicidal Ideation: whether any of the suicidal ideation items were present
Description: as §1, §2

[3] = Patient 1, 2 hours after 12 mg inhaled
[4] = Patient 1, 2 hours after 12 mg inhaled, baseline 1
[5] = Patient 1, 2 hours after 12 mg inhaled, baseline 5
[6] = Patient 1, 1 day after 12 mg inhaled
[7] = Patient 1, 1 day after 12 mg inhaled, baseline 1
[8] = Patient 1, 1 day after 12 mg inhaled, baseline 5
[9] = Patient 1, 7 days after 12 mg inhaled
[10] = Patient 1, 7 days after 12 mg inhaled, baseline 1
[11] = Patient 1, 7 days after 12 mg inhaled, baseline 5
[12] = Patient 2, 2 hours after 12 mg inhaled
[13] = Patient 2, 2 hours after 12 mg inhaled, baseline 5
[14] = Patient 2, 1 day after 12 mg inhaled
[15] = Patient 2, 1 day after 12 mg inhaled, baseline 5
[16] = Patient 2, 7 days after 12 mg inhaled
[17] = Patient 2, 7 days after 12 mg inhaled, baseline 5
[18] = both patients, all assessment time points after 12 mg inhaled
[19] = single dose of 12 mg via inhalation

COc1ccc2[nH]cc(CCN(C)C)c2c1 [5-MeO-DMT, 5-methoxy-N,N-dimethyltryptamine] was tested, and the “ECG, safety laboratory analyses, CADSS and cognitive tests (PVT, DSST)” value ([1]; ECG at 3 hours, laboratory at 3 hours and 7 days, CADSS at 3 hours, 1 day and 7 days, PVT, DSST at 1 day and 7 days) was “unremarkable”, the Reported adverse events ([1]; Patient 1, Administration day, mild, resolved spontaneously) was “Dizziness” and the Reported adverse events ([1]; Patient 1, Day 1, mild, resolved spontaneously) was “Headache, Flashback”. For the same compound, the Reported adverse events ([1]; Patient 1, Day 7, mild, resolved spontaneously) was “Headache”, the Reported adverse events ([1]; Patient 2, Administration day) was “None reported” and the Reported adverse events ([1]; Patient 2, Day 1, mild, resolved spontaneously) was “Headache”. The Reported adverse events ([1]; Patient 2, Day 7) was “None reported”, the “changes in vital parameters” value ([1]; shortly after administration of 12 mg, both patients) was “temporary, not clinically relevant increase in heart rate and blood pressure” and the “tolerability of the inhalation procedure” value ([1]; single dose of 12 mg via inhalation, both patients) was “well tolerated with no inhalation-related adverse events”. The “% MADRS change vs. baseline” value [2, 3] was −68%, the PGI-I [2, 3] was 1 and the “MADRS suicidal thoughts item” value [2, 4] was 0. The “BPRS Unusual thought content” value [2, 4] was 1, the “BPRS Somatic concern” value ([2]; Patient 1, 2 hours after 12 mg inhaled, baseline 3) was 2 and the “BPRS Tension” value ([2]; Patient 1, 2 hours after 12 mg inhaled, baseline 4) was 3. The PGI-S [2, 5] was 1, the “BPRS Guilt feelings” value [2, 5] was 1 and the “BPRS Depressive Mood” value ([2]; Patient 1, 2 hours after 12 mg inhaled, baseline 6) was 2. The “BPRS Anxiety” value ([2]; Patient 1, 2 hours after 12 mg inhaled, baseline 7) was 2, the MADRS ([2]; Patient 1, 2 hours after 12 mg inhaled, baseline 31) was 10 and the “BPRS (total)” value ([2]; Patient 1, 2 hours after 12 mg inhaled, baseline 42) was 27. The “C-SSRS Suicidal Ideation” value ([2]; Patient 1, 2 hours after 12 mg inhaled, baseline Yes) was “No”, the “% MADRS change vs. baseline” value [2, 6] was −74% and the PGI-I [2, 6] was 1. For the same compound, the “MADRS suicidal thoughts item” value [2, 7] was 0, the “BPRS Unusual thought content” value [2, 7] was 1 and the “BPRS Somatic concern” value ([2]; Patient 1, 1 day after 12 mg inhaled, baseline 3) was 1. For the same compound, the “BPRS Tension” value ([2]; Patient 1, 1 day after 12 mg inhaled, baseline 4) was 1, the PGI-S [2, 8] was 1 and the “BPRS Guilt feelings” value [2, 8] was 1. For the same compound, the “BPRS Depressive Mood” value ([2]; Patient 1, 1 day after 12 mg inhaled, baseline 6) was 1, the “BPRS Anxiety” value ([2]; Patient 1, 1 day after 12 mg inhaled, baseline 7) was 1 and the MADRS ([2]; Patient 1, 1 day after 12 mg inhaled, baseline 31) was 8. The “BPRS (total)” value ([2]; Patient 1, 1 day after 12 mg inhaled, baseline 42) was 18, the “C-SSRS Suicidal Ideation” value ([2]; Patient 1, 1 day after 12 mg inhaled, baseline Yes) was “No” and the “% MADRS change vs. baseline” value [2, 9] was −90%. The PGI-I [2, 9] was 1, the “MADRS suicidal thoughts item” value [2, 10] was 0 and the “BPRS Unusual thought content” value [2, 10] was 1. For the same compound, the “BPRS Somatic concern” value ([2]; Patient 1, 7 days after 12 mg inhaled, baseline 3) was 1, the “BPRS Tension” value ([2]; Patient 1, 7 days after 12 mg inhaled, baseline 4) was 1 and the PGI-S [2, 11] was 1. For the same compound, the “BPRS Guilt feelings” value [2, 11] was 1, the “BPRS Depressive Mood” value ([2]; Patient 1, 7 days after 12 mg inhaled, baseline 6) was 1 and the “BPRS Anxiety” value ([2]; Patient 1, 7 days after 12 mg inhaled, baseline 7) was 1. For the same compound, the MADRS ([2]; Patient 1, 7 days after 12 mg inhaled, baseline 31) was 3, the “BPRS (total)” value ([2]; Patient 1, 7 days after 12 mg inhaled, baseline 42) was 18 and the “C-SSRS Suicidal Ideation” value ([2]; Patient 1, 7 days after 12 mg inhaled, baseline Yes) was “No”. For the same compound, the “% MADRS change vs. baseline” value [2, 12] was −73%, the PGI-I [2, 12] was 2 and the “MADRS suicidal thoughts item” value ([2]; Patient 2, 2 hours after 12 mg inhaled, baseline 1) was 0. For the same compound, the “BPRS Tension” value ([2]; Patient 2, 2 hours after 12 mg inhaled, baseline 3) was 1, the “BPRS Somatic concern” value ([2]; Patient 2, 2 hours after 12 mg inhaled, baseline 4) was 1 and the PGI-S [2, 13] was 1. The “BPRS Anxiety” value [2, 13] was 2, the “BPRS Depressive Mood” value [2, 13] was 3 and the “BPRS Guilt feelings” value [2, 13] was 1. The “BPRS Unusual thought content” value ([2]; Patient 2, 2 hours after 12 mg inhaled, baseline 6) was 1, the MADRS ([2]; Patient 2, 2 hours after 12 mg inhaled, baseline 33) was 9 and the “BPRS (total)” value ([2]; Patient 2, 2 hours after 12 mg inhaled, baseline 45) was 26. For the same compound, the “C-SSRS Suicidal Ideation” value ([2]; Patient 2, 2 hours after 12 mg inhaled, baseline No) was “No”, the “% MADRS change vs. baseline” value [2, 14] was −85% and the PGI-I [2, 14] was 2. The “MADRS suicidal thoughts item” value ([2]; Patient 2, 1 day after 12 mg inhaled, baseline 1) was 1, the “BPRS Tension” value ([2]; Patient 2, 1 day after 12 mg inhaled, baseline 3) was 1 and the “BPRS Somatic concern” value ([2]; Patient 2, 1 day after 12 mg inhaled, baseline 4) was 1. For the same compound, the PGI-S [2, 15] was 1, the “BPRS Anxiety” value [2, 15] was 1 and the “BPRS Depressive Mood” value [2, 15] was 1. For the same compound, the “BPRS Guilt feelings” value [2, 15] was 1, the “BPRS Unusual thought content” value ([2]; Patient 2, 1 day after 12 mg inhaled, baseline 6) was 1 and the MADRS ([2]; Patient 2, 1 day after 12 mg inhaled, baseline 33) was 5. The “BPRS (total)” value ([2]; Patient 2, 1 day after 12 mg inhaled, baseline 45) was 19, the “C-SSRS Suicidal Ideation” value ([2]; Patient 2, 1 day after 12 mg inhaled, baseline No) was “No” and the “% MADRS change vs. baseline” value [2, 16] was −85%. The PGI-I [2, 16] was 2, the “MADRS suicidal thoughts item” value ([2]; Patient 2, 7 days after 12 mg inhaled, baseline 1) was 0 and the “BPRS Tension” value ([2]; Patient 2, 7 days after 12 mg inhaled, baseline 3) was 1. The “BPRS Somatic concern” value ([2]; Patient 2, 7 days after 12 mg inhaled, baseline 4) was 1, the PGI-S [2, 17] was 1 and the “BPRS Anxiety” value [2, 17] was 1. The “BPRS Depressive Mood” value [2, 17] was 1, the “BPRS Guilt feelings” value [2, 17] was 1 and the “BPRS Unusual thought content” value ([2]; Patient 2, 7 days after 12 mg inhaled, baseline 6) was 1. The MADRS ([2]; Patient 2, 7 days after 12 mg inhaled, baseline 33) was 5, the “BPRS (total)” value ([2]; Patient 2, 7 days after 12 mg inhaled, baseline 45) was 18 and the “C-SSRS Suicidal Ideation” value ([2]; Patient 2, 7 days after 12 mg inhaled, baseline No) was “No”. The “standard criteria for MADRS remission (MADRS total score equal or less than 10)” value [2, 18] was “fulfilled”, the “standard criteria for MADRS response (at least 50% improvement from baseline)” value [2, 18] was “fulfilled” and the “time to clinical remission after a single 5-MeO-DMT administration” value [2, 19] was ≤ 2 h. The “time to clinical response after 5-MeO-DMT administration” value [2, 19] was ≤ 2 h.
